{"source": "patent US5514648A", "about": "“Fungicidally active compounds” (priority 1990, dated 1996)", "key": {"[1]": {"assay": "Temperature and pH stability (HPLC)", "type": "physicochemical", "details": "buffer, 16 hours", "experimental": "Procedure: The compound BK202 was solubilized in buffer at the pHs indicated in FIG. 1, and then placed at 25°-55° C. for 16 hours. The buffers used were phosphate-citrate (T. C. McIlvaine, J. Biol. Chem. 49,183(1921), in the pH range 2.5-7 and from pH 7-9.5 is used TRIS 0.05 M. After 16 hours, the samples were filtered on a membrane filter 0.45 μm, and then analyzed by the HPLC method.\nHowever, this may reside in experimental error.\nColumn: Spherisorb Hexyl 5 μm, 140 mm×4.6 mm\nEluent: 55% Acetonitrile +0.1% Trifluor acetic Acid\nRetention time: ca. 6.3 minutes"}, "[2]": {"assay": "in vitro testing of dermal irritation (Skintex)", "excerpt": "The toxicity of BK 202 was investigated in the following tests using the compound of formula IV in crystaline form: […]\nAmes spot tests and in vitro testing of dermal irritation (Skintex®)."}, "[3]": {"assay": "Toxicology IC50, ATP", "details": "estimated", "experimental": "Based on these tests the IC50 values for BK 202 were estimated as: ATP >10 μg/ml;"}, "[4]": {"test_system": "V. inequalis", "assay": "Fungicidal activity, mycelial growth on potato dextrose agar", "type": "cell-based, Venturia inequalis", "details": "in as low concentrations as 0.0016 μg/ml, 3 to 6 days", "experimental": "(§1) Experiments were carried out to determine the potency of the compound of formula IV towards various fungi. The active ingredient was dissolved in 60% ethanol and added to cooled potato dextrose agar to give final concentrations of 25, 5, 1, 0.2, 0.04 and 0.0016 μg a.i. per ml agar, respectively. Control dishes contained no active ingredient.\n(§2) 10 ml Agar was poured into 9 cm petri dishes and each concentration was inoculated with actively growing mycelium of the fungal isolates tested for. The dishes were incubated at the optimum temperature for growth of the isolates for 3 to 6 days after which time the growth was measured in mm and compared to the controls.\n(§3) The test isolates covered a broad range of fungi within the Oomycetes, the Ascomycetes, the Basidiornycetes, the Deuterornycetes, and the Zygomycetes."}, "[5]": {"test_system": "S. sclerotiorum", "assay": "Fungicidal activity, mycelial growth on potato dextrose agar", "type": "cell-based, Sclerotinia sclerotiorum", "details": "in as low concentrations as 0.0016 μg/ml, 3 to 6 days", "experimental": "as §1, §2, §3"}, "[6]": {"test_system": "M. fructigena", "assay": "Fungicidal activity, mycelial growth on potato dextrose agar", "type": "cell-based, Monilinia fructigena", "details": "in as low concentrations as 0.0016 μg/ml, 3 to 6 days", "experimental": "as §1, §2, §3"}, "[7]": {"test_system": "A. pisi", "assay": "Fungicidal activity, mycelial growth on potato dextrose agar", "type": "cell-based, Ascochyta pisi", "details": "in as low concentrations as 0.0016 μg/ml, 3 to 6 days", "experimental": "as §1, §2, §3"}, "[8]": {"test_system": "C. beticola", "assay": "Fungicidal activity, mycelial growth on potato dextrose agar", "type": "cell-based, Cercospora beticola", "details": "25 to 0.0016 μg a.i. per ml agar, 3 to 6 days", "experimental": "as §1, §2, §3"}, "[9]": {"test_system": "A. alternata", "assay": "Fungicidal activity, mycelial growth on potato dextrose agar", "type": "cell-based, Alternaria alternata", "details": "25 to 0.0016 μg a.i. per ml agar, 3 to 6 days", "experimental": "as §1, §2, §3"}, "[10]": {"test_system": "F. lycopersici", "assay": "Fungicidal activity, mycelial growth on potato dextrose agar", "type": "cell-based, Fusarium lycopersici", "details": "25 to 0.0016 μg a.i. per ml agar, 3 to 6 days", "experimental": "as §1, §2, §3"}, "[11]": {"test_system": "Basidiornycetous species", "assay": "Fungicidal activity, mycelial growth on potato dextrose agar", "type": "cell-based, Basidiornycetes", "details": "25 to 0.0016 μg a.i. per ml agar", "experimental": "as §1, §2, §3"}, "[12]": {"test_system": "Deuterornycetous species", "assay": "Fungicidal activity, mycelial growth on potato dextrose agar", "type": "cell-based, Deuterornycetes", "details": "25 to 0.0016 μg a.i. per ml agar", "experimental": "as §1, §2, §3"}, "[13]": {"test_system": "Botrytis cinerea", "assay": "Field trial, Botrytis cinerea on grapes (Ugni Blanc)", "type": "in vivo", "details": "100, 300, and 900 g a.i./ha, three sprayings", "excerpt": "Field trial performed in Bordeaux, France, in accordance with CEB Method No. 37. A plot consisted of 15 plants in one row and six replicates were used. The active compound was used in a test formulation containing approximately 10% active ingredient (a.i.). Three concentrations of active compound were applied: 100, 300, and 900 g a.i./ha. The water volume was 300 l/ha. The grapes were sprayed at the following growth stages: T1, end of formation of bunches of grapes; T2, beginning of ripening of grapes; and T3, 3 to 4 weeks before harvest. The commercial fungicides […]® and BASULTRA® were used as standard references. The assessment was performed by estimating the intensity and frequency of the Botrytis cinerea attack after the appearance of the disease."}, "[14]": {"test_system": "Botrytis cinerea", "assay": "Green house trial, Botrytis cinerea on tomatoes (Matador)", "type": "in vivo", "details": "at all the tested concentrations 0.01%, 0.03%, and 0.09% a.i.", "excerpt": "Green house trial performed in Lyngby, Denmark.\nA plot consisted of 7 plants (approximately 12 weeks old, 1 m high) and three replicates were used. The plants were kept in a plastic \"tent\" to maintain a high humidity. Before spraying the plants 20 leaves per plant were mechanically injured to improve the attack of Botrytis cinerea. The active compound was used in a test formulation containing approximately 10% active ingredient (a.i.). Three concentrations of active compound were applied: 0.01%, 0.03%, and 0.09% a.i. The water volume was 770 ml/plot.\nThe tomatoes were sprayed just after wounding the leaves. 24 hours after fungicide treatment an artificial inoculation was done by spraying spores of B. cinerea suspended in 30% orange juice on the plants.\nThe commercial fungicide RONILAN®was used as standard reference.\nThe assessment was performed by counting the number of attacks on leaves, stalks, fruits, and flower buds."}, "[15]": {"test_system": "Botrytis cinerea isolate A (resistant to BENLATE®)", "assay": "In vitro agar growth assay, fungicide resistant Botrytis cinerea", "type": "cell-based", "details": "3 days, 25 C, control 76", "experimental": "(§4) Activity against fungicide resistant Botrytis cinerea isolates One isolate resistant to BENLATE® (isolate A), and one isolate resistant to BENLATE®,ROVRAL® and SUMISCLEX® (isolate B) were isolated from plants which had been sprayed with the above mentioned pesticides. The effect of BK 202 on these isolates was determined in an in vitro assay and compared with the three commercial pesticides. The fungicides were added to agar and dispensed in petri dishes at different concentrations and were inoculated with a sensitive (normal(isolate C)) and the two resistant strains. After 3 days at a temperature of 25 C growth was measured in mm."}, "[16]": {"test_system": "Botrytis cinerea isolate B (resistant to BENLATE®, ROVRAL® and SUMISCLEX®)", "assay": "In vitro agar growth assay, fungicide resistant Botrytis cinerea", "type": "cell-based", "details": "3 days, 25 C, control 80", "experimental": "as §4"}, "[17]": {"test_system": "Botrytis cinerea isolate C (sensitive, normal)", "assay": "In vitro agar growth assay, sensitive Botrytis cinerea", "type": "cell-based", "details": "3 days, 25 C, control 74", "experimental": "as §4"}, "[18]": {"details": "concentration 0.125 (unit not given)"}, "[19]": {"details": "concentration 2 (unit not given)"}, "[20]": {"details": "concentration 10 (unit not given)"}}, "note": "Where a SMILES comes first, the peptide text is derived from it. [ ]: non-standard residue; d: D form. NMeI = CC[C@H](C)[C@H](NC)C(=O)O; NMeD = CN[C@@H](CC(=O)O)C(=O)O; NMeV = CN[C@H](C(=O)O)C(C)C; Pip = O=C(O)[C@@H]1CCCCN1; dLac = C[C@@H](O)C(=O)O", "data": [{"compound": "CC[C@H](C)[C@H]1C(=O)NCC(=O)N(C)[C@@H](C(C)C)C(=O)N[C@@H](Cc2ccc(OC)cc2)C(=O)O[C@H](C)C(=O)N2CCCC[C@H]2C(=O)N(C)[C@@H](C(C)C)C(=O)N[C@@H](C(C)C)C(=O)N(C)[C@@H](CC(=O)O)C(=O)N(C)[C@@H](C(C)C)C(=O)N1C", "note": "[BK 202, cyclo- Pec-MeVal-Val-MeAsp-MeVal-MeIle-Gly-MeVal-TyrOMe-D-Lact!] (cyclo(G[NMeV]Y(Me)[dLac][Pip][NMeV]V[NMeD][NMeV][NMeI]))", "values": [{"measurement": "stability at pH values above 8", "setting": "[1]; 25°-55° C.", "result": "decreases rapidly"}, {"measurement": "stability optimum (pH)", "setting": "[1]; 25°-55° C., stability seems independent of temperature", "result": "~7"}, {"measurement": "stability at pH values below 7", "setting": "[1]; except at 25° C., where the decrease seems rapid (possibly experimental error)", "result": "decreases slowly"}, {"measurement": "dermal irritation score, Skintex® test", "setting": "[2]", "result": "lowest possible irritation"}, {"measurement": "IC50, ATP", "setting": "[3]", "result": "> 10", "unit": "µg/mL"}, {"measurement": "inhibition of growth", "setting": "[4]", "result": "very strong"}, {"measurement": "inhibition of growth", "setting": "[5]", "result": "very strong"}, {"measurement": "inhibition of growth", "setting": "[6]", "result": "very strong"}, {"measurement": "inhibition of growth", "setting": "[7]", "result": "very strong"}, {"measurement": "inhibition of growth", "setting": "[8]", "result": "weaker"}, {"measurement": "inhibition of growth", "setting": "[9]", "result": "weaker"}, {"measurement": "inhibition of growth", "setting": "[10]", "result": "weaker"}, {"measurement": "fungicidal activity", "setting": "[11]", "result": "practically no activity"}, {"measurement": "fungicidal activity", "setting": "[12]", "result": "most active"}, {"measurement": "fungicidal effect (intensity of infection, FIG. 9) compared to both RONILAN® and BASULTRA®", "setting": "[13]", "result": "superior"}, {"measurement": "fungicidal effect (degree of infection, FIG. 10) compared to RONILAN®", "setting": "[14]", "result": "superior"}, {"measurement": "growth, Isolate A", "setting": "[15]; [18]", "result": 0, "unit": "mm"}, {"measurement": "growth, Isolate A", "setting": "[15]; [19]", "result": 0, "unit": "mm"}, {"measurement": "growth, Isolate A", "setting": "[15]; [20]", "result": 0, "unit": "mm"}, {"measurement": "growth, Isolate B", "setting": "[16]; [18]", "result": 0, "unit": "mm"}, {"measurement": "growth, Isolate B", "setting": "[16]; [19]", "result": 0, "unit": "mm"}, {"measurement": "growth, Isolate B", "setting": "[16]; [20]", "result": 0, "unit": "mm"}, {"measurement": "growth, Isolate C", "setting": "[17]; [18]", "result": 0, "unit": "mm"}, {"measurement": "growth, Isolate C", "setting": "[17]; [19]", "result": 0, "unit": "mm"}, {"measurement": "growth, Isolate C", "setting": "[17]; [20]", "result": 0, "unit": "mm"}]}]}
